Active and inactive are the calls of the source.
Tests used:
[1] = target: T1, Probable nicotinate-nucleotide adenylyltransferase (Staphylococcus aureus (strain N315), UniProt P65502); type: functional, Staphylococcus aureus subsp. aureus N315;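 for IC50 Mean: confirmatory dose-response retesting of NadD inhibitor hits first found in an ultra-high-throughput screen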
[2] = target: T1, Probable nicotinate-nucleotide adenylyltransferase; type: functional, Staphylococcus aureus subsp. aureus N315; conditions: read-out: IC50_Mean
[3] = system: HEK293; assay: optical interference in Abeta FP readout, dose response, artefact control for IDE activator project, biochemical, fluorescence polarization (AID 588442); type: functional, cell-based; conditions: Homo sapiens
[4] = system: HEK293; assay: membrane integrity loss in HEK cells – cell-based, fluorescence, cytotoxicity control for IDE activator project, dose response (AID 588440); type: functional; conditions: Homo sapiens;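 note: cytotoxicity by LDH release measuring loss of membrane integrity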
[5] = alpha-synuclein stem-loop luciferase translation blockers – H4 neuroglioma cells, luminescence, confirmation (AID 1988); type: functional, cell-based
[6] = target: T2, Short transient receptor potential channel 4 (Mus musculus, UniProt Q9QUQ5); assay: block of DAMGO-driven TRPC4 calcium entry – cell-based, HEK293 TRPC4/mu-opioid, Fluo-4 calcium, dose response (AID 434942); type: functional;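 note: potency of inhibitors blocking the TRPC4 calcium response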
T2 sequence (Q9QUQ5 whole entry): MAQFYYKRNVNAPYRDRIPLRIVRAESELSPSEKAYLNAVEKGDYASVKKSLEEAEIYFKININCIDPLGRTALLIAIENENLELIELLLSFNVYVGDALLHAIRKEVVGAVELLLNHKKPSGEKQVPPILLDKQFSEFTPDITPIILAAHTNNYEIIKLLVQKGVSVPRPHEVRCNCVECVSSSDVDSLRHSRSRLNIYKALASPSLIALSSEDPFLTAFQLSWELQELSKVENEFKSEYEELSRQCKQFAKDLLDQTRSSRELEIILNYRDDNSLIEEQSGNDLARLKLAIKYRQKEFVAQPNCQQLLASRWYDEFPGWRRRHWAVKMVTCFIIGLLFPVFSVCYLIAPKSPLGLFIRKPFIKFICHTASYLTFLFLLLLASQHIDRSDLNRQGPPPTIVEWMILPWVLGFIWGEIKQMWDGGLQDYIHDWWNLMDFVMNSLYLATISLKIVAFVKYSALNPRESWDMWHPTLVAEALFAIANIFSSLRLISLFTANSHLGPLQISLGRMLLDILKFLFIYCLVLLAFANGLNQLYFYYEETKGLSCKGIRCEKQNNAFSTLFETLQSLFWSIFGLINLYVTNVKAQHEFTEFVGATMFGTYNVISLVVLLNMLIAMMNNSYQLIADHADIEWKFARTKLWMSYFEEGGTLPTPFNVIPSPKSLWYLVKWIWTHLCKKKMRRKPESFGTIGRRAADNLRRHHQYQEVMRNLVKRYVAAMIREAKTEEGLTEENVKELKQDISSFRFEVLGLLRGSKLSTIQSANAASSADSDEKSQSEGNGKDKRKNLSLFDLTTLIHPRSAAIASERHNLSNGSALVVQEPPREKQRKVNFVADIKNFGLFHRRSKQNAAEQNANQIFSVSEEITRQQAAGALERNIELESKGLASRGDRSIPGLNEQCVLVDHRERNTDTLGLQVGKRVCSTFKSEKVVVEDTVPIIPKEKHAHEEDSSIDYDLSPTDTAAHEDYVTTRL

[7] = target: T3, Insulin-degrading enzyme (Homo sapiens, UniProt P14735); assay: recombinant IDE activation, cell-free – biochemical, fluorescence polarization, counter-screen for IDE activator project, dose response (AID 588681)
T3 sequence (P14735 whole entry): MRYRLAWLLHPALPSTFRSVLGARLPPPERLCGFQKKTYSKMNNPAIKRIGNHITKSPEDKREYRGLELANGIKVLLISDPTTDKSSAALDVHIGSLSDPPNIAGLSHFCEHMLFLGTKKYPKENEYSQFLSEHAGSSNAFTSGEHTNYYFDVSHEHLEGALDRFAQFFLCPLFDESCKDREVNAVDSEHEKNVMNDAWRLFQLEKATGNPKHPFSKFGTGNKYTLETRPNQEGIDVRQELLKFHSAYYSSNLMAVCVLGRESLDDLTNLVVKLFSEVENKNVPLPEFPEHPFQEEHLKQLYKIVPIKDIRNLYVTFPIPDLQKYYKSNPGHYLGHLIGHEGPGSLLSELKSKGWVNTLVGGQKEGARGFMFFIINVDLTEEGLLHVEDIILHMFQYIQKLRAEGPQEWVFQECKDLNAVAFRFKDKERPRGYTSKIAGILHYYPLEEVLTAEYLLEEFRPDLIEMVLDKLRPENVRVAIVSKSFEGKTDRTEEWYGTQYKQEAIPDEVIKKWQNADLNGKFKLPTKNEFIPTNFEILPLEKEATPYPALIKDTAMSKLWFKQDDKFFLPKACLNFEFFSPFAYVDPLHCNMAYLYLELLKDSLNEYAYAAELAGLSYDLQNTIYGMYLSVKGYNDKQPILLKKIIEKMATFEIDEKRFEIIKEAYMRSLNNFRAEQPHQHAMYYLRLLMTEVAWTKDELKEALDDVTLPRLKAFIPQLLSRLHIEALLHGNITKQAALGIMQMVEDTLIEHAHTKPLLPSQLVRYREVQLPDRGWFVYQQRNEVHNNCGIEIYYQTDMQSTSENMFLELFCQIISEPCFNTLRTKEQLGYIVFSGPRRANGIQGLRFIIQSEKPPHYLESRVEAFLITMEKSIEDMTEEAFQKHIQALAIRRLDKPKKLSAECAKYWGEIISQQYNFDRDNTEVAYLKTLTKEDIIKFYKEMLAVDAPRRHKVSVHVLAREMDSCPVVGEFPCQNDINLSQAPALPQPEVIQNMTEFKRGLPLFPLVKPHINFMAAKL

[8] = luciferase reporter signal suppression in cells – H4 neuroglioma cells, luminescence, dose response (AID 1990); type: functional, cell-based
[9] = target: T3, Insulin-degrading enzyme; assay: cellular IDE activation of Abeta substrate cleavage – fluorescence polarization, HEK cells, dose response (AID 588439); type: functional, cell-based
[10] = Luminescence Cell-Based Dose Response HTS to Identify Inhibitors of 5'UTR Stem-Loop Driven Prion Protein mRNA Translation in H4 Neuroglioblastoma Cells. [Related pubchem assays: 1827 (Project Summary), 1813 (Primary HTS)]; type: functional
[11] = THP-1 cell cytotoxicity, dose response, cytotoxicity control for non-replicating M. tuberculosis project (AID 489025); type: functional
[12] = cytotoxicity toward MDA-MB-231 breast cancer cells – cell-based, CellTiter-Glo luminescence, cherry-pick, cytotoxicity control for RAD54 inhibitor project, dose response (AID 651692); type: functional
[13] = NIH3T3 cell viability loss – ATP luminescence, mouse fibroblasts, counter-screen, dose response (AID 2010); type: functional, cell-based;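 note: cells exposed to compound for about 90 hours before reading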
[14] = target: T4, DNA repair and recombination protein RAD54-like (Homo sapiens, UniProt Q92698); assay: RAD54 Holliday junction migration blockers – biochemical, fluorescence, cherry-picked samples, dose series, confirmation (AID 651657); type: functional
T4 sequence (Q92698 whole entry): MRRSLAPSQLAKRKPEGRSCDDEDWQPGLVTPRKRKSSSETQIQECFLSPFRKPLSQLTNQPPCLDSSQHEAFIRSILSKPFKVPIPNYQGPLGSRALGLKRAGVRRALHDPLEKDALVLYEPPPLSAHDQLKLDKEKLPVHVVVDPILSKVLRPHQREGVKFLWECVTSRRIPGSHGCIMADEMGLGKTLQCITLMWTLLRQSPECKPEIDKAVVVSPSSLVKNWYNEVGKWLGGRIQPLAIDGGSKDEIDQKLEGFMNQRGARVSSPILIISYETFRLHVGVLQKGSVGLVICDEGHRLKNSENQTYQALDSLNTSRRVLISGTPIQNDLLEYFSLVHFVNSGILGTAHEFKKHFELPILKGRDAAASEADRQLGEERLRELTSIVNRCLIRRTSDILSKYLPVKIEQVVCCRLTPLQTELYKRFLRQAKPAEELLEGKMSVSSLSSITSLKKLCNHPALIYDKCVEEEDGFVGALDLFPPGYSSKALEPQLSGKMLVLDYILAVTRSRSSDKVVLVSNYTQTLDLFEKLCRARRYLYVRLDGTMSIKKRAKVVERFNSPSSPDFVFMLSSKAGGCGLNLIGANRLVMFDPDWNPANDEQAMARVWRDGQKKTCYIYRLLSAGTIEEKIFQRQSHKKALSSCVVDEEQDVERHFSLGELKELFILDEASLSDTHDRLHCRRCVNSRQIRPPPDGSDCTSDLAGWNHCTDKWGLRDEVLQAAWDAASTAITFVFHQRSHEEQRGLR

[15] = Trypanosoma cruzi growth suppression in host cells – NIH3T3 host cells, beta-gal luminescence, confirmation (AID 2044); type: functional, cell-based;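 note: intracellular parasites grown in NIH/3T3 mouse fibroblasts as host cells; luminescent beta-galactosidase reporter signal from transgenic T. cruzi replicating inside host cells; inhibitors lower the luminescence signal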
[16] = target: T5, Sentrin-specific protease 1 (Homo sapiens, UniProt Q9P0U3); assay: Dose response confirmation of small molecule inhibitors of the catalytic domain of the SUMO protease, SENP1 in a FRET assay.; type: functional; conditions: read-out: IC50_Mean
T5 sequence (Q9P0U3 whole entry): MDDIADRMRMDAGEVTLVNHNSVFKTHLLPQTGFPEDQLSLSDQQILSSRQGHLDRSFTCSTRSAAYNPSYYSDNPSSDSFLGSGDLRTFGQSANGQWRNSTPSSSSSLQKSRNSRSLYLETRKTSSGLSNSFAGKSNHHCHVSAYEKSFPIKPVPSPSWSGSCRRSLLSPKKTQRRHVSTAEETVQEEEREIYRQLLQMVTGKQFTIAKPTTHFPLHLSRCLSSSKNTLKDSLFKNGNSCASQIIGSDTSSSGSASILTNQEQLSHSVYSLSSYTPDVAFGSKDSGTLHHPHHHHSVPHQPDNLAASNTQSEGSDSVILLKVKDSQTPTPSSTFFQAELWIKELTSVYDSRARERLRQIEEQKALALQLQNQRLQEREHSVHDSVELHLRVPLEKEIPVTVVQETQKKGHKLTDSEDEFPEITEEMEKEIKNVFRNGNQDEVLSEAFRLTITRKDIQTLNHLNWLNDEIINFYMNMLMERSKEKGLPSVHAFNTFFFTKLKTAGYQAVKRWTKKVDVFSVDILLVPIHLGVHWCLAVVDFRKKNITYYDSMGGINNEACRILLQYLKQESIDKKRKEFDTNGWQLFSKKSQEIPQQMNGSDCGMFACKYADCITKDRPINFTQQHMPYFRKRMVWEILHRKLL

[17] = target: T5, Sentrin-specific protease 1; assay: SENP1 catalytic domain blockers, concentration series – biochemical, kinetic FRET, dose response (AID 651697); type: functional; conditions: read-out: IC50_Mean
[18] = blockers of CRF-binding protein–CRF-R2 complex – cell-based, uHTS hits, 384-well, dose response (AID 651639); type: functional, Homo sapiens; conditions: read-out: IC50_Mean
[19] = target: T6, Corticotropin-releasing factor receptor 2/Corticotropin-releasing factor-binding protein (Homo sapiens, UniProt P24387+Q13324); assay: Dose Response confirmation of uHTS hits for small molecule antagonists of the CRF-binding protein and CRF-R2 receptor complex.; type: functional; conditions: read-out: IC50_Mean
T6 sequence (Q13324 whole entry): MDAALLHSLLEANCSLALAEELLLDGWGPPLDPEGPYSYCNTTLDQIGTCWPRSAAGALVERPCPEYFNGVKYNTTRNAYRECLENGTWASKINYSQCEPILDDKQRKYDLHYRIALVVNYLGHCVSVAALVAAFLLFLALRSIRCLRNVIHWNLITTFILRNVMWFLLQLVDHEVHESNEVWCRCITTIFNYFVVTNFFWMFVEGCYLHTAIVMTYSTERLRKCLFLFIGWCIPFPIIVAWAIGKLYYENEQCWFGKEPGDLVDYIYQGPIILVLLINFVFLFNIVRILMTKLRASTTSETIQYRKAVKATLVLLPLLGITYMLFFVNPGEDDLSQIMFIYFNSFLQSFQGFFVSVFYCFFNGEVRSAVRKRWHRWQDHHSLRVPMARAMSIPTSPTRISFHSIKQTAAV
T6 sequence (P24387 whole entry): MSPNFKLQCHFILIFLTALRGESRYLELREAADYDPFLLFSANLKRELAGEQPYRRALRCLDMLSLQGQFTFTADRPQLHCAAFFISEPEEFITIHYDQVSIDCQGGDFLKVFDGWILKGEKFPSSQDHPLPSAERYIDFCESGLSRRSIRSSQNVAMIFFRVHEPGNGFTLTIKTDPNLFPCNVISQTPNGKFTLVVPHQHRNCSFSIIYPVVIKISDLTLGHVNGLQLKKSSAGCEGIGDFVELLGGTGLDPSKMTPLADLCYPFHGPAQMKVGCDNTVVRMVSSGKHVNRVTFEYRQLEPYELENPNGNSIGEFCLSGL

[20] = target: T6, Corticotropin-releasing factor receptor 2/Corticotropin-releasing factor-binding protein; assay: activators of CRF receptor 2 with binding protein – uHTS hits, confirmation (AID 602473); type: functional; conditions: read-out: EC50_Mean
[21] = target: T7, Interleukin-8 (Homo sapiens, UniProt P10145); assay: Dose Response confirmation of uHTS small molecule hits for cystic fibrosis induced NFkb Inhibitors in a PAF-induced IL8 counterscreen.; type: functional; conditions: read-out: IC50_Mean
T7 sequence (P10145 whole entry): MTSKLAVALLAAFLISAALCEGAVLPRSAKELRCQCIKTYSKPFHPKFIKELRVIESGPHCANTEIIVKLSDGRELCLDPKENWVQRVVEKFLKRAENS

T1 sequence (P65502 whole entry): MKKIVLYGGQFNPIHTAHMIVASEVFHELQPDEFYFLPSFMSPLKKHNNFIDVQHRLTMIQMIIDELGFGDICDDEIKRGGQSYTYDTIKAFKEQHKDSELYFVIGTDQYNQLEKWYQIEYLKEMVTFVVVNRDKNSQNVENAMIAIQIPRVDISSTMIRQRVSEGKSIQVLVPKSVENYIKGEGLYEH

SMILES: Cc1cc2[nH]c(=O)c(=O)[nH]c2cc1S(=O)(=O)N1CCN(c2cccc(C(F)(F)F)c2)CC1
- IC50 [1]: 9.57 µM (active)
- IC50 [2]: 29.2 µM (active)

SMILES: COc1ccc(/C=C2/SC(=S)N(CCCC(=O)Nc3ccccc3C(=O)O)C2=O)cc1
- EC50 [3]: 58.7 µM (inactive)
- IC50 [4]: > 89.1 µM (inactive)
- EC50 [5]: 11.1 µM (active)
- EC50 [6]: 6.68 µM (active)
- EC50 [7]: > 54.6 µM (inactive)
- EC50 [8]: 11 µM (active)
- EC50 [9]: > 54.6 µM (inactive)
- EC50 [10]: 11.2 µM (active)

SMILES: CCN(CC)CCSc1nnc2c3cc(C)ccc3n(Cc3ccccc3)c2n1
- CC50 [11]: 26.1 µM (active)
- AC50 [12]: 30.6 µM (active)
- EC50 [13]: > 60 µM (not active)
- AC50 [14]: 31.4 µM (active)
- EC50 [15]: 0.754 µM (active)

SMILES: C=CCOCCN1C(=O)C2C(c3ccccc3)C=CC(c3ccccc3)C2C1=O (stereo unspecified)
- IC50 [16]: 4.3 µM (active)
- IC50 [17]: 6.05 µM (active)

SMILES: CCc1ccc(-c2cc(C)no2)cc1S(=O)(=O)Nc1ccc(Cl)cn1
- IC50 [18]: > 20 µM (inactive)
- IC50 [19]: 27.5 µM (active)
- EC50 [20]: > 53 µM (inactive)

SMILES: Cc1cccc(CSc2ccc3nnc(-c4cccs4)n3n2)c1
- IC50 [18]: 2.57 µM (active)
- IC50 [19]: 32.2 µM (active)
- EC50 [20]: > 53 µM (inactive)

SMILES: CCOC(=O)c1c(O)nc2ccc(Cl)c3c2c1-c1ccccc1C3=O
- IC50 [16]: 2.75 µM (active)
- IC50 [17]: 18.3 µM (active)

SMILES: COCCNc1nc(Oc2cncc(Cl)c2)c2sccc2n1
- IC50 [21]: 29.2 µM (inactive)
